Legend:
Alpha 2 Receptor = assay: NovaScreen receptor binding, Alpha 2 Receptor
Method: (§1) A number of compounds were sent to NovaScreen® (5200 Freeport Centre, Baltimore, Md. 21224) to determine the compounds' receptor selectivity. […] Compounds which show inhibition of 50% or greater at an assay concentration of 10 μM to 1 nM are considered active or very potent, respectively. In the table below a number of compounds show significant results for two or more of the significant receptors.

Serotonin 1 Receptor = assay: NovaScreen receptor binding, Serotonin 1 Receptor
Method: as §1

Serotonin 2 Receptor = Serotonin 2 Receptor (Homo sapiens, UniProt P28223); assay: NovaScreen receptor binding, Serotonin 2 Receptor; settings: for inhibition at 10 µM: 10^-5 M (10 μM); for inhibition at 0.1 µM: 10^-7 M (100 nM); for inhibition at 0.001 µM: 10^-9 M (1 nM)
Sequence of Serotonin 2 Receptor (P28223 whole entry): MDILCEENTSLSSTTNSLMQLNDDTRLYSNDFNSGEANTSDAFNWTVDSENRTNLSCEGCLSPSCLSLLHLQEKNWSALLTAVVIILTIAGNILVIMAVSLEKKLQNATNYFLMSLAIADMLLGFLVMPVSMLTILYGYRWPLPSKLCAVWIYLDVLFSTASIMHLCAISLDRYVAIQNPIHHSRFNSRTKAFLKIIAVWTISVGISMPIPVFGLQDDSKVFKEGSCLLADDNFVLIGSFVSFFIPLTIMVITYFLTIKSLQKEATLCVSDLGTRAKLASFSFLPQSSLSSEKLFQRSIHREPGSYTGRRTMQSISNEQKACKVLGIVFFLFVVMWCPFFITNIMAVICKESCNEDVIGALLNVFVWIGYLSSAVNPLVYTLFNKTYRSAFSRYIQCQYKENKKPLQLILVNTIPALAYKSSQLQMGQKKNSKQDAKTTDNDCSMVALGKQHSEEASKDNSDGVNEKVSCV
Method: as §1

eye = settings: previously disclosed by applicants; 0.2% to about 0.6% w/v preferred; cited from earlier work
rabbit eye = assay: IOP recovery rate assay (hypertonic sodium chloride infusion, topical drug); format: in vivo; settings: 0.6% solution
Method: The "IOP recovery rate assay" as reported by Vareilles and Lotti (Ophthalmic Res., 13, 72-79, 1981) is used.
IOP was measured at 15, 25, 35, 45, 60, 75, 90 and 120 minutes with an applanation pneumatonometer (Digilab Model D). Fifty uL of a 0.6% solution of N,N'-dimethyl-2-phenylethylamine containing a pH 7.4 phosphate buffer was administered topically to the right eye 60 minutes before the start of the sodium chloride infusion. Control animals were given vehicle without drug.
The hypertonic sodium chloride solution causes a temporary decline in IOP which returns to normal IOP in about 90 minutes if no drug is administered. IOP gradually returns to normal at a constant rate buy more slowly if the in vivo secretion rate of aqueous humor is reduced due to the presence of drug. The return to normal IOP is measured from the positive linear slope which is a measure of the constant rate of return to normal IOP and begins at about 30-45 minutes after starting the NaCl infusion. A comparison of the slope with and without the addition of N=2, R&R'=CH3 to the rabbit eye is expressed as "% reduction".

CCN(C)Cc1ccccc1 [n = 1, R = CH3, R' = C2 H5]
% INHIBITION (Alpha 2 Receptor; 10^-5 M (10 μM)): 53.0% | % INHIBITION (Alpha 2 Receptor; 10^-7 M (100 nM)): 4.7% | % INHIBITION (Alpha 2 Receptor; 10^-9 M (1 nM)): 2.2% | % INHIBITION (Serotonin 1 Receptor; 10^-5 M (10 μM)): 17.2% | % INHIBITION (Serotonin 1 Receptor; 10^-7 M (100 nM)): 6.2% | % INHIBITION (Serotonin 1 Receptor; 10^-9 M (1 nM)): 5.7%

CCN(CCc1ccccc1)C1CCCCC1.Cl [n = 2, R = C2 H5, R' = cyclohexyl, N-cyclohexyl-N-ethyl 2-phenylethylamine hydrochloride]
inhibition at 10 µM (Serotonin 2 Receptor): 48.9% | inhibition at 0.1 µM (Serotonin 2 Receptor): 4.7% | inhibition at 0.001 µM (Serotonin 2 Receptor): -11.2% | % INHIBITION (Serotonin 1 Receptor; 10^-5 M (10 μM)): 12.2% | % INHIBITION (Serotonin 1 Receptor; 10^-7 M (100 nM)): -4.0% | % INHIBITION (Serotonin 1 Receptor; 10^-9 M (1 nM)): 2.6%

CCCCCCN(C)CCc1ccccc1 [n = 2, R = CH3, R' = n-hexyl]
inhibition at 10 µM (Serotonin 2 Receptor): 92% | inhibition at 0.1 µM (Serotonin 2 Receptor): 9.6% | inhibition at 0.001 µM (Serotonin 2 Receptor): 2.3% | % INHIBITION (Alpha 2 Receptor; 10^-5 M (10 μM)): 95.7% | % INHIBITION (Alpha 2 Receptor; 10^-7 M (100 nM)): 6.7% | % INHIBITION (Alpha 2 Receptor; 10^-9 M (1 nM)): 1.6% | % INHIBITION (Serotonin 1 Receptor; 10^-5 M (10 μM)): 55.0% | % INHIBITION (Serotonin 1 Receptor; 10^-7 M (100 nM)): 30.0% | % INHIBITION (Serotonin 1 Receptor; 10^-9 M (1 nM)): 10.3%

CN(C)CCc1ccccc1 [n = 2, R&R' = CH3, N,N-dimethyl-2-phenylethylamine]
inhibition at 10 µM (Serotonin 2 Receptor): 46.9% | inhibition at 0.1 µM (Serotonin 2 Receptor): 10.7% | inhibition at 0.001 µM (Serotonin 2 Receptor): -2.1% | tear stimulation (eye): ophthalmically effective tear stimulant | % INHIBITION (Alpha 2 Receptor; 10^-5 M (10 μM)): 96.7% | % INHIBITION (Alpha 2 Receptor; 10^-7 M (100 nM)): 15.3% | % INHIBITION (Alpha 2 Receptor; 10^-9 M (1 nM)): 8.1% | average slope of return to normal IOP (rabbit eye; 50 uL topical to right eye 60 min before NaCl infusion, n = 12 rabbit eyes, ± standard deviation, vehicle only 0.109 ± 0.0268): 0.066 ± 0.027 | % Reduction of slope vs vehicle (rabbit eye; topical, n = 12 rabbit eyes): 38.5% | in vivo antiglaucoma activity (rabbit eye; topical, rabbit eye): potent in vivo antiglaucoma drug | % INHIBITION (Serotonin 1 Receptor; 10^-5 M (10 μM)): 82.3% | % INHIBITION (Serotonin 1 Receptor; 10^-7 M (100 nM)): 70.6% | % INHIBITION (Serotonin 1 Receptor; 10^-9 M (1 nM)): 62.3%

CN(CCCc1ccccc1)C1CCCCC1 [n = 3, R = methyl, R' = cyclohexyl]
inhibition at 10 µM (Serotonin 2 Receptor): 82.1% | inhibition at 0.1 µM (Serotonin 2 Receptor): -8% | inhibition at 0.001 µM (Serotonin 2 Receptor): -15.4% | % INHIBITION (Alpha 2 Receptor; 10^-5 M (10 μM)): 81.0% | % INHIBITION (Alpha 2 Receptor; 10^-7 M (100 nM)): 9.3% | % INHIBITION (Alpha 2 Receptor; 10^-9 M (1 nM)): 3.3% | % INHIBITION (Serotonin 1 Receptor; 10^-5 M (10 μM)): 5.7% | % INHIBITION (Serotonin 1 Receptor; 10^-7 M (100 nM)): -10.2% | % INHIBITION (Serotonin 1 Receptor; 10^-9 M (1 nM)): -6.3%

Source: patent publication US5322859A, “Antiglaucoma drug composition and method” (University of Iowa Research Foundation, priority 1993, dated 1994)
